Columns and labels:
[1] = biological target: FGFR4 kinase (Homo sapiens (Human), UniProt P22455); experiment: Enzymologic experiment of FGFR4 (TR-FRET); format: biochemical; conditions: FGFR4 kinase activity
Procedure: In this experiment, the inhibitory effect of the compounds on FGFR4 kinase activity was tested by a fluorescence resonance energy transfer (TR-FRET) method, and the half maximal inhibitory concentration (IC50) of the compounds on the FGFR4 kinase activity was determined.
2) 1˜5 μL of diluted solution in gradient of the compound was added.
3) 1˜5 μL of a substrate mixture containing substrate polypeptide with a final concentration of 5˜50 nM and ATP with a final concentration of 10˜200 μM was added.
4) The mixture was incubated for 0.5˜3 hours at room temperature.
5) 10 μL of EDTA and a test solution comprising labeled antibody were added, and the plate was incubated for 1 hour at room temperature.
7) The inhibition rates were calculated according to the fluorescence signal values.

[2] = biological target: FGFR1 kinase (Homo sapiens (Human), UniProt P11362); experiment: Enzymologic experiment of FGFR1 (TR-FRET); format: biochemical; conditions: FGFR1 kinase activity
Summary of the method: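 FGFR1 at 0.1˜5 nM final with substrate peptide 5˜50 nM and ATP 10˜200 μM final, 0.5˜3 h at room temperature. Stopped with EDTA plus labeled antibody for 1 h; TR-FRET signal read at 665 nm, IC50 fitted from inhibition rates.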

[3] = system: Hep 3B cells; experiment: Inhibition of Hep 3B cell proliferation (CellTiter-Glo); format: cell-based; conditions: Homo sapiens, Hep3B; Hep 3B cell proliferation, 72 hours, CellTiter-Glo; read-out: Hep 3B IC50
[4] = system: HuH-7 cells; experiment: Inhibition of HuH-7 cell proliferation (CellTiter-Glo); format: cell-based; conditions: Homo sapiens; HuH-7 cell proliferation, 72 hours, CellTiter-Glo; read-out: HuH-7 IC50
Summary of the method: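 HuH-7 cells plated and left 16–24 h, then exposed to serially diluted compound for 72 h at 37 °C, 5% CO2. Viability read by CellTiter-Glo luminescence. IC50 obtained by curve fitting of inhibition rates.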

[5] = system: SK-HEP-1 cells; experiment: Inhibition of SK-HEP-1 cell proliferation (CellTiter-Glo); format: cell-based; conditions: Homo sapiens, SK-HEP1; SK-HEP-1 cell proliferation, 72 hours, CellTiter-Glo; read-out: SK-HEP-1 IC50
Summary of the method: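 Cells seeded and allowed to attach 16–24 h, then exposed to serially diluted compound for 72 h at 37 °C, 5% CO2. Viability read by CellTiter-Glo luminescence; IC50 fitted from inhibition rates across concentrations.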

[6] = Pharmacokinetic (PK) analysis in rats; format: in vivo, Sprague Dawley (SD) rats; conditions: SD rats, single intragastric administration, 5 mg/kg; for Peak Time tmax: (sampling in hours); for AUC(0-t) / AUC(0-inf) / half-life / MRT / Cmax: Sprague-Dawley, rat, plasma, po; for AUC(0-t): read-out: Area Under Curve AUC0-t; for AUC(0-inf): read-out: Area Under Curve AUC0-∞; for half-life: read-out: Half-Time t1/2 (converted); for MRT: read-out: Mean Residence Time MRT; for Cmax: read-out: Plasma Concentration Cmax
Summary of the method: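 Intravenous blood (0.2 ml) was collected into K2EDTA and centrifuged to obtain plasma. Plasma (40 μL) was protein-precipitated with 160 μL acetonitrile. Compound levels were measured by LC/MS/MS on a C18 column using 0.1% formic acid in water and acetonitrile at 0.8 mL/min.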

[7] = system: Hep 3B cell line tumor; experiment: Pharmacodynamics test in vivo, Hep 3B tumor-bearing nude mice; conditions: Mus musculus, Hep3B, 336 h, oral 30 mg/kg, 2 times/day, 14 days of administration, read-out: Tumor inhibition rate
Procedure: a, A Hep 3B cell line was taken from the cell bank, and the cells were resuscitated with the MEM culture medium (MEM+10% FBS+1% Glu+1% SP). The cells were placed in the cell culture bottle after resuscitation (cell type, date, and the name of the culturing person were marked on the bottle wall) and were incubated in a CO2 Incubator (the incubator temperature was 37° C., and the CO2 concentration was 5%).
b, The cells were passaged after 80-90% of the bottom of the culture bottle was covered by the cells. After passage, the cells were further incubated in the CO2 incubator. The process was repeated until the number of cells met the pharmacodynamic requirements in vivo.
c, The cultured cells were collected and counted by automatic cell counter. According to the counting results, the cells were resuspended with PBS to prepare a cell suspension (density: 7×10^7/mL), which was placed in the ice box for use.
a, Nude mouse was marked with a disposable universal ear tag for mouse and rat before inoculation, and the skin of the inoculated site was disinfected with 75% medical alcohol.
b, At the time of inoculation, the cell suspension was mixed well, 0.1˜1 mL of cell suspension was taken with a 1 mL syringe, after removing air bubbles, and the syringe was placed on an ice bag for use.
c, The nude mice were inoculated successively (the inoculated site was located on the right shoulder of the right back of the nude mice, and inoculated subcutaneously with 0.1 mL of cell suspension).
a, Tumor was measured on Day 14 to Day 16 after inoculation depending on the tumor growth, and tumor size was calculated.
Tumor volume calculation: tumor volume (mm^3)=length (mm)×width (mm)×width (mm)/2
b, According to the size of the tumor, the mice were grouped by random grouping.
c, According to the results of the grouping, the test drug was administered (administration method: oral administration, administration dose: 30 mg/kg, administration volume: 10 mL/kg, administration frequency: 2 times/day, […], vehicle: 0.5% CMC/1% Tween 80).
d, The tumor was measured and weighed twice a week after the test drug was administrated.
e, Animals were euthanized at the end of the test.

FGFR4 kinase, sequence (P22455 22-802): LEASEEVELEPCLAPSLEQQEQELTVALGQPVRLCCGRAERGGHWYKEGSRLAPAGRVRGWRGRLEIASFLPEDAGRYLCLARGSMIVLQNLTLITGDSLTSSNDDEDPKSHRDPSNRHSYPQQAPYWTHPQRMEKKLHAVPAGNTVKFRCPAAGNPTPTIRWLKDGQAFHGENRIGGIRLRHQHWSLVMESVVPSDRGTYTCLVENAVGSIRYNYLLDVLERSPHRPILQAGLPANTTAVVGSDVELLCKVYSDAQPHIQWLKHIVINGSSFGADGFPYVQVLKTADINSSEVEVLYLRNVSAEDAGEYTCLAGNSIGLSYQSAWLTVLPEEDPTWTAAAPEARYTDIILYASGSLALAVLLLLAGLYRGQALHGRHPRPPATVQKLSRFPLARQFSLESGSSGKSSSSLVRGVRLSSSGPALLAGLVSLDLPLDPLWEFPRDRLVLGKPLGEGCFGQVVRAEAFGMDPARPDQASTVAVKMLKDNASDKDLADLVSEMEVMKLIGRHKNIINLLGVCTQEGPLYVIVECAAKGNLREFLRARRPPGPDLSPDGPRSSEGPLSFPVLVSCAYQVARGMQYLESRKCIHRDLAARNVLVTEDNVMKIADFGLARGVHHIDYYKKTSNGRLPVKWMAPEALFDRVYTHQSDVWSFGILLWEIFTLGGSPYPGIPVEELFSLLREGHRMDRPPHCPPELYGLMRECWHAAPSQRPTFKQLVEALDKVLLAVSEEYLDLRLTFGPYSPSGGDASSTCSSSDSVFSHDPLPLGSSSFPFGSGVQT
FGFR1 kinase, sequence (P11362 22-822): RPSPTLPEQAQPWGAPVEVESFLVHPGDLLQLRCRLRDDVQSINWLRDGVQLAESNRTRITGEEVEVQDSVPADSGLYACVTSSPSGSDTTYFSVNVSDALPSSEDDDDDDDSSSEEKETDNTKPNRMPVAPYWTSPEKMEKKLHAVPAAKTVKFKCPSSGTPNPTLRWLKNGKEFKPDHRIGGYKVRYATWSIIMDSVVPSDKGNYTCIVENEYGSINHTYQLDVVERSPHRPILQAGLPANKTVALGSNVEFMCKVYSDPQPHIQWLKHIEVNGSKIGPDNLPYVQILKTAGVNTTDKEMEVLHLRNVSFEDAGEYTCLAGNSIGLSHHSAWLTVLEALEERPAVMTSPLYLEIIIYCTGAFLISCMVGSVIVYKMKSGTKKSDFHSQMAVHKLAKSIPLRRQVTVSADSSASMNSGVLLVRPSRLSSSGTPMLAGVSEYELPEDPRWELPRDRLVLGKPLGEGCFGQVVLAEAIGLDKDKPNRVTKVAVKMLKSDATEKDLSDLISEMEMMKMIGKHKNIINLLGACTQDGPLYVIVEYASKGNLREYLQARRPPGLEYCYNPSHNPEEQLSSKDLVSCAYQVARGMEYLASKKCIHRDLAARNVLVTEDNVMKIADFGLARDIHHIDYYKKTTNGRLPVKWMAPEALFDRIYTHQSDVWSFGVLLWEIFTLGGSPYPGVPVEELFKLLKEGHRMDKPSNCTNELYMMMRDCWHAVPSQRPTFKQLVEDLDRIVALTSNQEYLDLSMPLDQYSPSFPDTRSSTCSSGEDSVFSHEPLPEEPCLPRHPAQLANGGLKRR

Row | Compound | IC50 [1] [nM] | IC50 [2] [nM] | IC50 [3] [nM] | IC50 [4] [nM] | IC50 [5] [nM] | Peak Time tmax [6] [h] | AUC(0-t) [6] [ng·h/mL] | AUC(0-inf) [6] [ng·h/mL] | half-life [6] [h] | MRT [6] [h] | Cmax [6] [ng/mL] | inhibition in vivo at 30 mg/kg [7] [%]
1 | COC[C@@H](C)Oc1cc(NC(=O)N2CCCc3cc(CN4C(=O)OCC45CC5)c(C=O)nc32)ncc1C#N [Example 42, (R)-N-(5-Cyano-4-((1-methoxypropan-2-yl)oxy)pyridin-2-yl)-7-formyl-6-((5-carbonyl-6-oxa-4-azaspiro[2.4]heptan-4-yl)methyl)-3,4-dihydro-1,8-naphthyridin-1(2H) -carboxamide] | 2.3 | > 10000 | 6.7 | 8.4 | > 10000 | 2 | 6670 | 6790 | 1.06 | 2.21 | 2140 | 103
2 | COCCNc1cc(NC(=O)N2CCCc3cc(CN4CCN(C5CC5)CC4=O)c(C=O)nc32)ncc1C#N [Example 65] | 1.62 | > 10000 | 4.3 | 15.2 | > 10000 | 2 | 2910 | 3390 | 1.02 | 3.72 | 3180 | 130

From patent US11667631B2, “FGFR4 inhibitor, preparation method therefor, and applications thereof” (Jiangsu Hansoh Pharmaceutical Group Co., Ltd., priority 2016, dated 2023)
